Here are results for two compounds from patent US10100079B2, “Progesterone-cationic lipid hybrid as anticancer agent and the process of synthesis thereof” (Council of Scientific & Industrial Research, priority 2016, dated 2018).

The subject of test [1] is B16F10 tumor sections. The test can be described thus: TUNEL assay with VE-cadherin staining on tumor sections. In kind it is in vivo, mice. The method, then: After completion of the in vivo experiment, one mouse from each group was sacrificed to check the apoptosis in tumor mass. First the tumors were frozen in Jung tissue medium (Leica Microsystem, Germany) followed by cryo-sectioning of 10 μm thin sections using Leica CM1850 cryostat (Germany). These were then fixed into 4% formalin for 15 min. TUNEL assay was carried out using Dead-End fluorometric apoptosis detection kit ([…]) following manufacturer's protocol. The same cryosections were washed with PBS and incubated with VE-cadherin mouse monoclonal antibody at 1:200 dilutions (Santa Cruz Biotech.) for 2 h at 4° C. to stain the blood vessel, followed by one hour incubation with goat anti-mouse IgG-PE (Santa Cruz Biotech.) secondary antibody; after that tissue sections were washed and observed under Nikon TE2000E microscope at 10× magnification.

In test [2] the test system is B16F10 tumor lysate proteins. The test can be described thus: Western blot analysis with B16F10 tumor lysates (FIG. 5B). Also noted: species or system C57BL/6J mice. The settings on record: B16F10 tumor lysate after in vivo treatment. The method, then:
For in vitro cell lysate preparation, B16F10 cells were either treated with compound 1 (10 μM), 6c (10 μM) or kept untreated for 36 h continuously. After that cells were washed with cold PBS for two times, and lysed by incubating for 30 min on ice with ice-cold RIPA lysis buffer (50 mM Tris [pH 7.5], 1% NP-40, 150 mM NaCl, 0.1% sodium dodecyl sulfate [SDS], 0.5% sodium deoxycholate) containing 1% proteinase inhibitor cocktails (PIC) (Cell Signaling Technology). Following 30 min of incubation cells were centrifuged at 14,000 rpm at 4° C. for 15 minutes, supernatant was collected, and Protein concentration was measured by using BCA assay a kit (thermo scientific). For in vivo whole cell lysate, after completion of the in vivo experiment one C57BL/6J mice with representative tumor size from each group was sacrificed and tumor was collected, lysed by ice-cold RIPA buffer with 1% PIC, whole cell lysate was prepared following the same steps as mentioned above. Respective cell lysates were run in SDS-PAGE gel (8%-15%) and then the bands were transferred to polyvinylidene fluoride (PVDF) membrane. Membranes were then first incubated with respective primary antibodies and then with alkaline phosphates conjugated secondary antibody (Goat-anti-rabbit and Goat-anti-mouse). Immunodetection was performed with BCIP/NBT substrate (Sigma-Aldrich). […]
(In western blotting, separated proteins are transferred to a membrane and probed.)

Test [3] relates to CHO. Description: MTT cytotoxicity assay, CHO. In kind it is cell-based, Chinese hamster. The settings on record: Cricetulus griseus, read-out: IC50 CHO. The method, then:
(§1) All cells were grown into mycoplasma free condition. […] All cells were grown up to 75-85% confluency after which cells were trypsinized, counted and seeded, in 96-well plates for cell viability studies, 6-well plates for apoptosis studies, 60 mm dish for cell cycle studies and in 25 cm^2 or 75 cm^2 tissue culture flasks for Western blot studies. The primary stock of the cationic progesterone molecules were made in cell culture grade DMSO and from that secondary stock was prepared by serial dilution with cell culture grade DMSO. The final working concentrations were prepared by diluting the secondary stock in cell culture media keeping the DMSO concentration in working solution below 0.2% with respect to cell culture medium. […] For this assay, 12-18 h before treatment cells were plated in 96-well plate at 5000 cells/well density. […] After completion of the treatment, 10 μL of MTT solution (5 mg/mL) was added in each well and incubated for 4 h. Then the media was removed carefully, and the reduced MTT was dissolved in 1:1 (v/v) DMSO/Methanol and absorbance was measured using multimode reader (Synergy H1, BioTek). Results were represented as percentage of viability={[A550(treated cells)−background]/[A550(untreated cells)−background]}×100. The result was summarized and provided as IC50 table in Table 1.
On the technique in general: Tetrazolium dyes change colour on reduction, which living cells bring about.

In test [4] the test system is B16F10. Description: MTT cytotoxicity assay, B16F10. The test is classed as cell-based, murine. The method, then:
as §1

Test [5] concerns HUVEC. Description: Viability study in HUVEC cell (FIG. 7A). In kind it is cell-based, Human. The settings on record: 48 h. As to the method:
2 μM Doxorubicin (DOX) was taken as positive control. + indicates p<0.01.
T47D, MCF-7, MDA-MB-231 (human breast carcinoma), OVCAR-3 (Human ovary carcinoma), B16F10 (murine melanoma), HUVEC (Human umbilical vein endothelium) cells were purchased from the American Type Cell Culture (ATCC, USA) and CHO (Chinese hamster ovary), NIH-3T3 (murine embryo fibroblast) and COS-1 (Kidney fibroblast) cells were purchased from National Center for Cell Sciences (Pune, India). All cells were grown into mycoplasma free condition. […] All cells were grown up to 75-85% confluency after which cells were trypsinized, counted and seeded, in 96-well plates for cell viability studies, 6-well plates for apoptosis studies, 60 mm dish for cell cycle studies and in 25 cm^2 or 75 cm^2 tissue culture flasks for Western blot studies.
Cytotoxicity assay of the different compounds were carried out by using 3-(4,5-dimethylthiazol-2-yl)-2,5-diphenyltetrazolium bromide (MTT). […] Then the media was removed carefully, and the reduced MTT was dissolved in 1:1 (v/v) DMSO/Methanol and absorbance was measured using multimode reader (Synergy H1, BioTek). […]

For test [6], the system named is T47D. Description: MTT cytotoxicity assay, T47D. In kind it is cell-based. The settings on record: Homo sapiens, read-out: IC50 T47D. As to the method:
as §1

Molecules are shown by their SMILES. Read-outs that look alike come from different tables or passages of the source.

For the compound `CCCCCCCCCC[N+](C)(CCCCCCCCCC)CCNC(=O)CCC(=O)O[C@@H](C)[C@H]1CCC2C3CCC4=CC(=O)CC[C@]4(C)C3CC[C@@]21C` (stereo partly drawn) [Compound 6c, N-decyl-N-(2-(4-((1S)-1-((10R,13S,17S)-10,13-dimethyl-3-oxo-2,3,6,7,8,9,10,11,12,13,14, 15,16,17-tetradecahydro-1H-cyclopenta[a]phenanthren-17-yl)ethoxy)-4-oxobutanamido)ethyl)-N-methyldecan-1-aminium chloride], the “extent of apoptosis induced in the blood vessel” value in test [1] (TUNEL / VE-cadherin merge, tumor sections) is “very high”. Besides, the “number of apoptotic cells in tumor compared to untreated or PR” value in test [1] (TUNEL, tumor sections of treated mice) was “significantly higher”. The “caspase 3 in tumor lysate” value in test [2] is listed as “increase”. For the same compound, the “p53 expression level in tumor lysate” value in test [2] is listed as “significant increase”. Moreover, the IC50 came out at 17.3 ± 0.29 µM in test [3] (48 h); 3.63 ± 0.16 µM in test [4] (Mus musculus, B16-F10, 48 h, read-out: IC50 B16F10, MTT, 48 h continuous treatment); 6.67 ± 0.27 µM in test [4] (read-out: IC50 B16F10, MTT, 48 h continuous treatment); 4.32 ± 0.57 µM in test [6] (48 h). Also, in test [5] (Homo sapiens, 2.5 μM, read-out: inhibition of cell growth), the inhibition at 2.5 µM turned out to be 50%.

Regarding `CC(=O)[C@H]1CC[C@H]2[C@@H]3CCC4=CC(=O)CC[C@]4(C)[C@H]3CC[C@]12C` [Compound 1, Progesterone], the IC50 in test [3] (MTT, 48 h continuous treatment, non-cancer cell) was above 20 µM; in test [4] (Mus musculus, B16-F10, MTT, 48 h continuous treatment, read-out: IC50 B16F10), above 20 µM; in test [6] (MTT, 48 h continuous treatment), above 20 µM. Besides, in test [5] (2.5 μM or even 10 μM), the “effect on cell growth” value is “little to no effect”.

As a reminder, the IC50 is the concentration that inhibits the measured activity by half. By inhibition is commonly meant the drop in the measured response relative to a control, in per cent.
